Consider two compounds from patent publication EP2423181A1, “Multitarget substituted biphenyl diol derivatives” (PROUS INSTITUTE FOR BIOMEDICAL RESEARCH S.A., priority 2010, dated 2012).

Where a name gives a salt, the structure may show the parent alone. Read-outs that look alike come from different tables or passages of the source.

One assay deals with T1, Src (Homo sapiens, UniProt P12931).
T1 construct: host or cells: Sf9 insect cells
Put plainly: Src protein tyrosine kinase inhibition (ELISA of Poly[Glu:Tyr-P]). It is filed as biochemical. How it is done:
Src protein tyrosine kinase activity was assessed in human recombinant insect Sf9 cells using as a substrate Poly(Glu:Tyr) at 10 µg/mL with preincubation and incubation times of 15 and 5 min, respectively, at 22°C in 50 mM HEPES, pH 7.4, 1 mM DTT, 20 mM MgCl2 and 0.2 mM Na3VO4. An ELISA quantitation method of Poly[Glu:Tyr-P] was employed (Farley, K et al. Anal Biochem, 1992, 203, 151-157). Table 4. Inhibition of Src at 10 µM
A general note: ELISA stands for enzyme-linked immunosorbent assay.

The target in assay [1] is T2, Gonadotrophin-releasing hormone receptors (GnRH, LH-RH)R (Homo sapiens, UniProt P30968).
T2 construct: expressed in transfected cells; host or cells: Chem-1 cells
T2 sequence (P30968 1-328): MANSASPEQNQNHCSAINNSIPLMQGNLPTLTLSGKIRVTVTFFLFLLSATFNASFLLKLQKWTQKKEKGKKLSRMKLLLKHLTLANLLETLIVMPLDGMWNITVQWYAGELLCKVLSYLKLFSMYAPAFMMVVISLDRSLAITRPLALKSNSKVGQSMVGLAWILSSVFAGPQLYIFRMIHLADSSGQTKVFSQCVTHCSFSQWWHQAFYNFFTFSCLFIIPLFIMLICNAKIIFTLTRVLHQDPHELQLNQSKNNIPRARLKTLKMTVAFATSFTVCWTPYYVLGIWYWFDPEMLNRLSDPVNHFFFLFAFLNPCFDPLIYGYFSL
Put plainly: GnRH radioligand binding assay. The note with it: read-out: % Inhibition at 10 µM. The source says: Gonadotrophin-releasing hormone receptors (GnRH, LH-RH)R are a family of G protein-coupled receptors for GnRH, which promotes the secretion of luteinizing hormone (LH) and follicle-stimulating hormone (FSH). The activation of this receptor promotes, through estrogen receptors (ER) located in the cytosol, an increase in gene transcription and activation of tumor suppressor genes, DNA repair, cell division and cell proliferation. GnRH agonists are useful in breast, prostate and ovarian cancer, endometriosis, melanoma, rheumatoid arthritis and Alzheimer's disease. Table 17 presents the results from radioligand binding studies for GnRH for selected compounds using human recombinant Chem-1 cells (Halmos G, Schally AV, Pinski J, Vadillo-Buenfill M, Groot K. Down regulation of pituitary receptors for luteinizing hormone-releasing hormone (LH-RH) in rats by LH-RH antagonist Cetrorelix. Prco Natl Acad Sci USA 1996;93(6):2398-2402). The specific and non specific ligands used were [^125l] [D-Trp^6]-LH-RH (0.05 nM) and [D-Trp^6]-LH-RH ([…]) and after 60 min of incubation at 25°C in a 50 mM HEPES, pH 7.5, 5 mM MgCl2, 1 mM CaCl2, and 0.2% BSA the activity was measured by radioligand binding. Table 17. GnRH radioligand binding assay

The target in assay [2] is T3, CDK2/CCNA2 (cdk2/cyclin A) (Homo sapiens, UniProt P24941).
T3 construct: host or cells: Sf21 insect cells
Put plainly: CDK2/cyclin A kinase inhibition ([32P]Histone H1). It is filed as biochemical. How it is done:
Human recombinant Sf21 cells were employed to assess the activity on protein serine threonine kinase CDK2/CCNA2 (cdk2/cyclin A). Histone H1 at 100 µg/ml was used as a substrate and the activity was measured by quantification of [^32P]Histone H1 after preincubation and incubation times of 15 and 30 min, respectively, at 37°C in 20 mM MOPS, pH 7.2, 5 mM EGTA, 20 mM MgCl2, 1 mM DTT, 25 mM β-Glycerophosphate, 1 mM Na3V04 incubation buffer (Gray, N. et al. Curr Med Chem, 1999, 6(9):859-875). Table 7. Inhibition of CDK2 at 10 µM

A further assay deals with T4, MAPK1 (ERK2) (Homo sapiens, UniProt P28482).
T4 construct: host or cells: E. coli
Put plainly: MAPK1 (ERK2) kinase inhibition ([32P]MBP). It is filed as biochemical. The method, then: Protein serine threonine kinase MAPK1(ERK2) was assessed in human recombinant E.Coli using 50 µg/ml myelin basic protein (MBP) as a substrate after preincubation and incubation times of 15 and 30 min, respectively, at 37°C in 20 mM MOPS, pH 7.2, 5 mM EGTA, 20 mM MgCl2, 1 mM DTT, 25 mM β-glycerophosphate, 1 mM Na3VO4 incubation buffer. The inhibitory activity was measured by quantification of [^32P]MBP (Jonhson, G.L. and Lapadat, R. Science 2002, 298(5600), 1911-1912). Table 8. Inhibition of MAPK1 at 10 µM

Another assay concerns the target ERβ (Homo sapiens, UniProt Q92731). Put plainly: Inhibition of ERβ. It is filed as binding. The settings on record: slight, non-significant.
For assay [3], the system named is mice. Put plainly: Hot plate test (analgesic activity). It is filed as in vivo. In general terms: Hot-plate and tail-flick tests time the reaction to a heat stimulus.
The test system of assay [4] is mice. Put plainly: Hot plate test (analgesic activity). It is filed as in vivo. How it is done:
The hot plate test was used as an animal model of thermally-induced pain. The inhibitory activity measured on the time licking and biting induced by temperature (30 sec max at 55°C) indicates analgesic effect. […] Table 13. Analgesic activity of example 1 in the hot plate test
This is another data set of the same source.

For a further assay, the target named is ERα (Homo sapiens, UniProt P03372). Put plainly: Inhibition of ERα. The note with it: slight, non-significant. It is filed as binding.
Chain of ERα (P03372 whole entry, species assumed): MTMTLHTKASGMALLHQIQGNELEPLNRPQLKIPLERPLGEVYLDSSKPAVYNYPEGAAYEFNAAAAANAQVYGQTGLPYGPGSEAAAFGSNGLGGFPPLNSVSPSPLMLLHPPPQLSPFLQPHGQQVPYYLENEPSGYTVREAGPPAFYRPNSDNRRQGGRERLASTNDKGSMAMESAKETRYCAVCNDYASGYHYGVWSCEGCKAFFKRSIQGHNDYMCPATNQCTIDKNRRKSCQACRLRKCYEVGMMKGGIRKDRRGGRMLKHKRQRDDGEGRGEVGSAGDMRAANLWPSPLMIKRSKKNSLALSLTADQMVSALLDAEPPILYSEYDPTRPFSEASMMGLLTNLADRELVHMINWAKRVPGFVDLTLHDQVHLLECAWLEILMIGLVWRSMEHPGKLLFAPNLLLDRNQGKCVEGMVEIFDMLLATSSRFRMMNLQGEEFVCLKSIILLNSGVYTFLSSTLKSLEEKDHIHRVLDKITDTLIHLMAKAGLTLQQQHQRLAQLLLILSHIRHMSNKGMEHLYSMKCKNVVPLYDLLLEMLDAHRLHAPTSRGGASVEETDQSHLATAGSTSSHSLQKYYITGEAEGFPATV

T4 sequence (P28482 whole entry): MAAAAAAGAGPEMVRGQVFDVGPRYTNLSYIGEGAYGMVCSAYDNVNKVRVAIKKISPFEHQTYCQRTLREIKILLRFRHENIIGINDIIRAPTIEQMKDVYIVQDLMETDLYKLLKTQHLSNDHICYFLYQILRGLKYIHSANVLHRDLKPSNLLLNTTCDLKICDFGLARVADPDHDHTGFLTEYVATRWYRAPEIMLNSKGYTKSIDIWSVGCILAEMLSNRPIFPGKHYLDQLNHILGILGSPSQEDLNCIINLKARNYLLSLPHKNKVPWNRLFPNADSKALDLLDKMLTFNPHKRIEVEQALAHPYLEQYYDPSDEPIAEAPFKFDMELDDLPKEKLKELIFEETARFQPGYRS
T1 sequence (P12931 whole entry): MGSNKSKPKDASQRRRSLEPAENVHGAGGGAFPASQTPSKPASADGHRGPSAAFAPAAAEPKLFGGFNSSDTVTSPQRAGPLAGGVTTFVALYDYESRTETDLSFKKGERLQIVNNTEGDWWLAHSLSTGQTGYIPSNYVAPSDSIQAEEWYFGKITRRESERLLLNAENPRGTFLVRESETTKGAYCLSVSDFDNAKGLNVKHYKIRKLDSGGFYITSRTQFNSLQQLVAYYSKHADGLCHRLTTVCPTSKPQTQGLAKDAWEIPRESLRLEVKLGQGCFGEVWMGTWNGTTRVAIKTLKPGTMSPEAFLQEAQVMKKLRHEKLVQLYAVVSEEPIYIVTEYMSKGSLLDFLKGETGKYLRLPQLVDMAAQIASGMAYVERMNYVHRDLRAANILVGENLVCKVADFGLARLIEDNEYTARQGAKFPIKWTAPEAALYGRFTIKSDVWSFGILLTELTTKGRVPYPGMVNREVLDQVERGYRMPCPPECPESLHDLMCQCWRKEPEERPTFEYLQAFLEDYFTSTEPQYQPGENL
Chain of ERβ (Q92731 whole entry, species assumed): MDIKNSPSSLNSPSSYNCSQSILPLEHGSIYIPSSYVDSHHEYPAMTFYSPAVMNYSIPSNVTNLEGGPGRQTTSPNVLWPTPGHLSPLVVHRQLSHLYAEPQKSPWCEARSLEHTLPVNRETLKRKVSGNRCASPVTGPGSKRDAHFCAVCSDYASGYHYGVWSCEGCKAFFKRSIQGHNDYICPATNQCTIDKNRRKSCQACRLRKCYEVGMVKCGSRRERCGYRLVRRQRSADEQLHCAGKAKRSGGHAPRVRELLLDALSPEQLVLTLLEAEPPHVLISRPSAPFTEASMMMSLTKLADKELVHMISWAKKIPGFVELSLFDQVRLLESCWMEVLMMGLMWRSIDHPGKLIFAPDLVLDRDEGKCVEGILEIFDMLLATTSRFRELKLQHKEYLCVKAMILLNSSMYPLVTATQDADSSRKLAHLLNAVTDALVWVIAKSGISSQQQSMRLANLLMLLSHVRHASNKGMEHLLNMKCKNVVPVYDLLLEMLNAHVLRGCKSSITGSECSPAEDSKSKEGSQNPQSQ

What is called inhibition is the percentage by which the read-out fell short of the control. In the case of `C=CCc1ccc(O)c(-c2ccc(OC(CCNC)c3ccccc3)c(CC=C)c2)c1` (stereo not shown) [Example 5, 3',5-Diallvl-4'-13-(methylamino)-1-phenylpropoxy]biphenyl-2-ol hydrochloride], the inhibition at 10 µM at Src is over 100%; in assay [1] it was 37%; in assay [2], 98%; at MAPK1 (ERK2), 80%.

On to `C=CCc1ccc(O)c(-c2cc(CC=C)ccc2OC(CCNC)c2ccccc2)c1.Cl` (stereo not shown) [Example 1, 5,5'-Diallyl-2'-[3-(methylamino)-1-phenylpropoxy]biphenyl-2-ol hydrochloride], for which the inhibition at 10 µM on Src (Src, at 10 µM, read-out: % Inhibition) stood at 99%; against ERβ, 7%; in assay [1] (GnRH radioligand binding, 10 µM), 50%; in assay [2] (CDK2, at 10 µM, read-out: % Inhibition), 92%; on MAPK1 (ERK2) (MAPK1, at 10 µM, read-out: % Inhibition), 58%; against ERα it was 13%. Further, the “Time Licking and biting (sec) Early phase (0-5 min)” value came to 57 s in the assay with mice [3] (dose 1 mg/kg i.p.), 45 s with mice [3] (dose 5 mg/kg i.p.), 38 s with mice [3] (dose 10 mg/kg i.p.) and 30 s in the assay on mice [3] (dose 30 mg/kg i.p.). Besides, the “Time Licking and biting (sec) Late phase (15-30 min)” value with mice [3] (dose 1 mg/kg i.p.) was 200 s; in the assay with mice [4] (dose 5 mg/kg i.p.), 150 s; with mice [4] (dose 10 mg/kg i.p.), 150 s; in the assay on mice [4] (dose 30 mg/kg i.p.), 20 s. In addition, the “antinociceptive activity in the hot plate test” value in the assay on mice [4] (dose not given) was “antinociceptive activity”.
